Values of other authors, collected in patent publication US20240174620A1, “SOLID FORMS OF SAFLUFENACIL-SODIUM AND SAFLUFENACIL-POTASSIUM, PROCESS OF PREPARATION AND USE THEREOF” (ADAMA AGAN LTD., priority 2021, published 2024).
Where two headings read alike, the source gives them in different places.

Tests used:
[1] = not given; remark: listed apart in the source

For `CC(C)N(C)S(=O)(=O)NC(=O)c1cc(-n2c(=O)cc(C(F)(F)F)n(C)c2=O)c(F)cc1Cl` [Saflufenacil], the “solubility in 1-octanol” value (1-octanol, 20° C.) is listed as less than 0.01 g/100 mL, the solubility in acetone (acetone, 20° C.) is listed as 27.5 g/100 mL and the solubility in acetonitrile (acetonitrile, 20° C.) is listed as 19.4 g/100 mL. The “solubility in ethyl acetate” value (ethyl acetate, 20° C.) was 6.55 g/100 mL, the “solubility in isopropyl alcohol” value (isopropyl alcohol, 20° C.) was 0.25 g/100 mL and the solubility in methanol (methanol, 20° C.) was 2.98 g/100 mL. For the same compound, the solubility in n-heptane (n-heptane, 20° C.) was less than 0.005 g/100 mL, the solubility in tetrahydrofurane (tetrahydrofurane, 20° C.) was 36.2 g/100 mL and the solubility in toluene (toluene, 20° C.) was 0.23 g/100 mL. For the same compound, the solubility in water (pH 5, 20° C.) was 0.0025 g/100 mL, the solubility in water (pH 7, 20° C.) was 0.21 g/100 mL and the pKa [1] was 4.41.
